Here are results for one molecule from patent US20180237362A1, “NOVEL POLYGODIAL ANALOGS FOR THE TREATMENT OF CANCER AND OTHER PROLIFERATIVE DISEASES” (THE BOARD OF REGENTS OF THE UNIVERSITY OF TAXAS SYSTEM, priority 2015, published 2018).

One series has as its system HeLa cells. Kind of series: Morphological changes, HeLa. Format: cell-based, human. The settings on record: P3 50 μM, 1 hour. As to the method:
FIGS. 12A-B Morphological changes (20×) in HeLa cells (FIG. 12Aa-d) and HSC3 cells (FIG. 12Ba-d) with no treatment (a) or treated with Polygodial 80 μM (b), P10 4 μM (c), and P3 50 μM (d) for 1 hour. Differences in morphological changes between treatments indicate potentially unique mechanisms-of-action between polygodial and P10 (isomer), and P3 (novel analog).

The subject of series [1] is transgenic mouse glioma cells (neurosphere cultures). Kind of series: CytoTox-Fluor cytotoxicity assay, neurosphere glioma cultures. The settings on record: cdkn2a deletion with PDGFB or EGFRvIII; 24 h; 5 at 20 μM, CBD at 10 μM. Type of series: cell-based. The protocol: FIGS. 5A-D. Activity of 5 against neurosphere glioma cell cultures with clinically relevant mutations. Transgenic mouse glioma cells of defined molecular subtypes were generated by forced expression of EGFRvIII (classical GBM subtype), PDGFB (proneural GBM subtype) in cdkn2a-deficient and cdkn2a/TRPV1-doubly deficient subventricular neural precursors (NPC). These primary cell cultures were treated for 24 hours either with 10 μM CBD versus a corresponding vehicle-control (containing 0.01% DMSO) or 20 μM of 5 versus vehicle control (0.02% DMSO). Cytotoxicity was measured 24 h after incubation and base-line cytotoxicity levels in the controls were arbitrarily defined as 1. Read-outs from treated cells were normalized to their respective vehicle controls and -fold change of relative cytotoxicity was calculated. Each bar represents the mean±SD from two independent experiments; statistical significance, as determined by unpaired t-tests, is indicated: *** represents p<0.001; ** p<0.005; * p=0.0257; ns not significant).
Human mammary carcinoma MCF-7 (ATCC HTB22) cells were cultured in RPMI supplemented with 10% FBS. […]
The CytoTox-Fluor cytotoxicity assay from Promega has been used according to manufacturer's instructions. […] After 2 hours of incubation at 37° C., the fluorescence intensity was measured using the Tecan InfiniteF200 fluorescence plate reader (485 nm Ex/520 nm Em). […]

In series [2] the test system is MDR uterine sarcoma cell line MES-SA/Dx5. Briefly: MTT antiproliferative assay, MDR MES-SA/Dx5. Type of series: cell-based, human. The protocol:
Human mammary carcinoma MCF-7 (ATCC HTB22) cells were cultured in RPMI supplemented with 10% FBS. The U87 cells (ATCC HTB-14) were cultured in DMEM culture medium, while the A549 cells (DSMZ ACC107) were cultured in RPMI culture medium supplemented with 10% heat-inactivated FBS. The GBM Hs683 (ATCC HTB-138) cells were cultivated in DMEM supplemented with 10% FBS. The human uterine sarcoma MES-SA (ATCC CRL1966) and MES-SA/D×5 cells were cultured in RPMI-1640 medium supplemented with 10% FBS with MES SA/D×5 maintained in the presence of 500 nM Doxorubicin (Sigma). SKMEL-28 cells (ATCC HTB72) and U373 GBM cells (ECACC 08061901) were cultured in RPMI culture medium supplemented with 10% heat-inactivated FBS. Cell culture media were supplemented with 4 mM glutamine (Lonza code BE17-605E), 100 μg/mL gentamicin (Lonza code 17-5182), and penicillin-streptomycin (200 units/ml and 200 μg/ml) (Lonza code 17-602E). The MDA-MB-231 (ATCC HTB-26) epithelial mammary adenocarcinoma cells were cultured in Eagle's minimum essential medium (EMEM; Invitrogen) containing 5% fetal calf serum (FCS, Cambrex), 2 mM L-glutamine (Invitrogen), 0.06% HEPES (Invitrogen) and penicillin (50 IU/ml)/streptomycin (50 µg/ml; Invitrogen) at 37° C. in a humidified atmosphere of 5% CO2 in air. Transformed mouse NPCs were cultured in suspension under neurosphere conditions at 37° C. in a humidified atmosphere of […] and 5% CO2 in DMEM F12 (Invitrogen 11320-074) supplemented with 1×B27 supplement (Invitrogen 17504-044), 5% penicillin-streptomycin (Biochrom 10378-017), 10 ng/ml EGF (R&D systems 236-EG), 10 ng/ml FGF (PeproTech 100-18B).
Antiproliferative properties of the synthesized compounds were evaluated by the MTT assay. All compounds were dissolved in DMSO at a concentration of either 100 μM or 50 μM prior to cell treatment. The cells were trypsinized and seeded at various cell concentrations depending on the cell type. The cells were grown for 24 h to 72 h, treated with compounds at concentrations ranging from 0.001 to 100 μM and incubated for 48 or 72 h in 100 or 200 μL media depending on the cell line used. The number of experiments and replicates varied depending on the cell line. Cells treated with 0.1% DMSO were used as a negative control; 1 μM PAO was used as a positive control.
Selection of the MES-SA/D×5 cell line was done according to Harker et al. (Harker & Sikic, 1985). The cells were split and allowed to adhere overnight. The next day cells were initially exposed to doxorubicin (DOX) at the concentration of 100 nM, which represented the GI50 concentration. The cells were maintained at this DOX concentration until their growth rate reached that of the untreated cells. The DOX concentration was then increased in two-fold increments following the same growth criteria at each concentration to a final DOX concentration of 500 nM. Each new DOX concentration required approximately 2 passages to reach the growth rate of the untreated cells.
Often, tumors initially respond to chemotherapy but eventually become refractory to the continuing treatment. Such acquired resistance commonly occurs through the development of a multi-drug resistant phenotype (MDR) (Gottesman et al., 2002 and Saraswathy & Gong, 2013) affecting many common chemotherapeutic agents, including the vinca alkaloids (Chen et al., 2000) and taxanes (Geney et al., 2002). In addition, the development of apoptosis resistance and MDR mechanisms is often related and concurrent (Ruefli et al., 2002 and Johnstone et al., 1999), and thus it was of interest to evaluate 5 against MDR cells. Towards this end, the MDR uterine sarcoma cell line MES-SA/D×5, established by growing the parent uterine sarcoma MES-SA in the presence of increasing concentrations of doxorubicin and resistant to multiple functionally and structurally unrelated molecules (Harker & Sikic, 1985), was utilized.

On to `COC(=O)/C=C/C1=CC[C@H]2C(C)(C)CCC[C@]2(C)[C@H]1C=O` [Compound 5], for which the “morphological changes, HeLa” value in the series with HeLa cells is “apoptotic figures”. Moreover, the “cytotoxicity against GBM neurosphere cultures” value in series [1] is recorded as “effectiveness similar to that of cannabidiol (CBD)”. Also, the “change of potency against MES-SA/Dx5 MDR cell line as compared with parent MES-SA cells” value in series [2] (48 h MTT) was “little variation in the sensitivities of the two cell lines”. For the same molecule, the GI50 in series [2] (48 h treatment, MTT assay, relative to DMSO control, read-out: GI50 in vitro values, MES-SA/Dx5) is 45 µM.
